Where “and” joins values, the source holds several entries; their conditions need not be identical. Equal values may be shown once.
Columns and labels:
Format in all cases: cell-based
[1] = molecular target: T1, vasopressin-2 receptor (AVP2R) (Homo sapiens, UniProt P30518); assay: AVP2R cAMP HTRF accumulation assay; details: CHO-K1 AVP2R cells; for AVP2R PAM (cAMP) Score (activity score = normalized Emax × pEC50): PAM format; for EC50 / Emax: PAM format with vasopressin, original hits: agonist and PAM data combined, average ± SD
T1 construct: expressed in transfected cells; host or cells: CHO-K1 (PAM format); HEK-293 (agonist format)
T1 sequence (P30518 whole entry): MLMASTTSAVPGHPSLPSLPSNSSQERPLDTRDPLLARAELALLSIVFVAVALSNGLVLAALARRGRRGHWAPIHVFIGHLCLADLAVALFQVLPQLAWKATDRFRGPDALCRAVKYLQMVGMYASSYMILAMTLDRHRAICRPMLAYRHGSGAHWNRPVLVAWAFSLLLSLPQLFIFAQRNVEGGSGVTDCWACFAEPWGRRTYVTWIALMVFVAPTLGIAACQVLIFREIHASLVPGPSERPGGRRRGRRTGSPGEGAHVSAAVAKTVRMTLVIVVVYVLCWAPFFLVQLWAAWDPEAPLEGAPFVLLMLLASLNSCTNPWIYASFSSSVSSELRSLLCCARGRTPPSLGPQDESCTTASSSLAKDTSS
Description: Possible off-target biological effects. […] Here, we tested them at the vasopressin-2 receptor (AVP2R), representing a class A GPCR structurally related to CCK1R, which is coupled to Gs. The activity at AVP2R was tested using AVP2R-overexpressing CHO-K1 (PAM format) or HEK-293 (agonist format) cells, stimulating the cells with vasopressin. Original hits were tested in both agonist and PAM formats. Since all recognized compound responses were present in both formats, we continued to screen analogs in only the PAM format (also able to capture agonist effects) in CHO-K1 AVP2R cells for potential enhanced sensitivity. The dose–response data sets for original hits were combined, as the PAM and agonist effects were indistinguishable. In brief, arginine vasopressin (AVP) orthosteric stimulator dilutions and ligand and compound dose–response titrations in DMSO were transferred onto a 1536-well plate (Corning #3725) using an Echo liquid handler (Labcyte). Thawed cryopreserved cell stocks were diluted in stimulation buffer consisting of HBSS (Hank’s Balanced Salt Solution with Ca^2+ and Mg^2+, Gibco #24020117), 5 mM HEPES (hydroxyethyl piperazineethanesulfonic acid), 0.5 mM IBMX (3-isobutyl-1-methylxanthine, Sigma-Aldrich), and 0.075% BSA (7.5% DTPA-purified bovine serum albumin, PerkinElmer). The resulting cell suspension was added to the microplate and incubated with test compounds at room temperature for 30 min. Then, the detection reagents from the Cisbio cAMP Gs Dynamic HTRF detection kit were added. The plate was kept at room temperature for 30 min and read on a PHERAstar FSX microplate reader. Dose–response curves were performed as 16-point 2-fold dilutions in duplicate in at least two independent experiments.

CCK1R [2] = molecular target: T2, CCK1R (Homo sapiens, UniProt P32238); assay: IP-One accumulation TR-FRET assay, PAM format, HEK-293 CCK1R cells; parameters: expressed in transfected cells; host or cells: HEK-293; details: for Emax: HEK293, relative to CCK control; for Emax / CCK1R PAM (IP-One) Score (activity score = normalized Emax × pEC50) / EC50: HEK-293 CCK1R cells; for Emax / CCK1R PAM (IP-One) Score (activity score = normalized Emax × pEC50): PAM format; for Emax / EC50: average ± SD; for EC50: PAM format with EC20 CCK; for CCK1R IP-One activity (in words): PAM and agonist formats
T2 sequence (P32238 1-428): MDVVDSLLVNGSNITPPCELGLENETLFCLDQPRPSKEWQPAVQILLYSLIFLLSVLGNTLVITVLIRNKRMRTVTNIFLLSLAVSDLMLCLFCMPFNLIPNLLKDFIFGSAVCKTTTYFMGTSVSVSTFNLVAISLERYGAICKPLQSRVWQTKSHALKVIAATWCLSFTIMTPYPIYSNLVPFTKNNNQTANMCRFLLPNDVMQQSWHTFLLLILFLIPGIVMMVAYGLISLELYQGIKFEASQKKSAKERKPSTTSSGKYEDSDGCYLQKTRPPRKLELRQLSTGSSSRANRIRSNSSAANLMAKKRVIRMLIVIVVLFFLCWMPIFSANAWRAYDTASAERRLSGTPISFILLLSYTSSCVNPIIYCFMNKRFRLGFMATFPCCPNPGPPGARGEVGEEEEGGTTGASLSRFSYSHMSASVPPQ
Description: (§1) For structure–activity relationship studies, we performed myo-inositol-1-phosphate (IP-One) accumulation assays with TR-FRET technology applied to the HEK-293 cell line overexpressing CCK1Rs, as we had described in our high throughput screening effort. In brief, thawed cryopreserved cell stocks were re-suspended in IP-One assay media consisting of phenol-red free DMEM (Corning, Corning, NY, USA, #17-205-CV) with 10% FBS, 1% penicillin (10,000 units)/streptomycin (10 mg) (Pen/Strep, Thermo Fisher Scientific, Waltham, MA, USA, Gibco #15140122), and 1% L-glutamine (200 mM) (Gibco #25030081) and diluted to required cell densities. Then, the cell suspension was dispensed into a 1536-well tissue culture microplate (Corning, #3727), and the plate was incubated overnight at 37 °C and 5% CO^2. After 16–20 h, DMSO or compounds were added with an Echo liquid handler (Labcyte, San Jose, CA, USA), resulting in a top final compound concentration of 50 µM diluted 2-fold for 16-point dose–responses. For the positive allosteric modulator (PAM) format, orthosteric stimulator (CCK) dilutions for control wells were prepared in assay media containing 150 mM lithium chloride (LiCl, 50 mM final, Sigma-Aldrich, St Louis, MO, USA, #L7026). After a 30 min incubation of test compounds at 37 °C and 5% CO2, orthosteric stimulator dilutions (for PAM format) or equivalent dilutions of DMSO (for agonist format) were added to designated wells using BioRaptr (Beckman Coulter, Brea, CA, USA). In addition, CCK control ligand dilutions were included on each test plate. After that, the plate was incubated for 1 h at 37 °C and 5% CO^2 and equilibrated to room temperature. Detection reagents from the IP-One Gq detection kit from Cisbio (Cisbio US Inc., Bedford, MA, USA, #62IPAPEJ) were added, and after 1 h at RT, IP-One content was measured with a PHERAstar FSX microplate reader (BMG Labtech, Ortenberg, Germany). Control ligand dose–responses were analyzed using GraphPad Prism 9.3.1 (San Diego, CA, USA) to validate adequate control and test well concentrations for positive allosteric modulation (PAM) and agonist formats. Dose–response curves were performed as 16-point 2-fold dilutions in duplicates in at least three independent experiments. Large data sets were uploaded and analyzed with CBIS (Chemical and Biology Information System software, ChemInnovation Software, Inc., San Diego, CA, USA). Further data analysis for detailed SAR studies was conducted using the D360 software (Certara).
(§2) The potency and efficacy data for these compounds were used to calculate their activity scores using the following formula: Activity Score = normalized Emax × pEC50. Normalized Emax represents the efficacy of the compound as a fractional response relative to that of the CCK control ligand. pEC50 represents the positive logarithmic value of compound EC50 concentrations in (M).

CCK1R [3] = molecular target: T2, CCK1R; assay: IP-One accumulation TR-FRET assay, agonist format, HEK-293 CCK1R cells; parameters: expressed in transfected cells; host or cells: HEK-293; details: for Emax: HEK293, relative to CCK control, average ± SD, read-out: CCK1R Ago (IP-One) Emax
Description: as §1, §2

Row | Structure (SMILES) | AVP2R PAM (cAMP) Score (activity score = normalized Emax × pEC50) [1] | EC50 [1] [µM] | Emax [1] [%] | Emax (CCK1R [2]) [%] | CCK1R PAM (IP-One) Score (activity score = normalized Emax × pEC50) (CCK1R [2]) | CCK1R Ago (IP-One) Score (activity score = normalized Emax × pEC50) (CCK1R [3]) | Emax (CCK1R [3]) [%] | EC50 (CCK1R [2]) [µM] | CCK1R IP-One activity (in words) (CCK1R [2])
1 | CCCc1nc2sc3c(NCCN4CCOCC4)ncnc3c2c2c1CCCC2 [CMP-8] | 2.3 and 2.31 | 15.7 ± 8.4 | 48 ± 12 | 53 ± 1 | 2.34 | 0 |  | 37.8 ± 3.9 | 
2 | CCN(CC)CCCNc1ncnc2c1oc1nc(CC(C)C)c3c(c12)CCC3 [CMP-10] | 2.2 and 2.15 | 21.7 ± 11.3 | 46 ± 9 | 51 ± 16 | 2.3 and 2.28 |  |  | 22.5 ± 9 | 
3 | O=C(CSc1ncnc2c1sc1nc(N3CCOCC3)c3c(c12)CCCC3)Nc1ccc(Br)cc1 [CMP-41] | 0 |  | 0 | 0 | 0 | 0 | 0 |  | 
4 | CN(C)CCCNc1nnnc2c1sc1nc(N3CCOCC3)c3c(c12)CCCC3 [CMP-17] | 1.2 | 22.4 ± 9.2 | 26 ± 1 | 50 ± 32 | 2.0 and 1.99 |  |  | 23 ± 17.9 | 
5 | CCCCc1nc2sc3c(NCCCO)ncnc3c2c2c1CCC2 [CMP-5] | 1.6 and 1.61 | 8.1 ± 8.5 | 32 ± 11 | 53 ± 6 | 2.7 and 2.66 |  |  | 7.5 ± 2.9 | 
6 | CC(C)Cc1nc2oc3c(NCCN(C)C)ncnc3c2c2c1CCCC2 [CMP-25] |  | 8.6 ± 5.4 | 74 ± 12 | 38 ± 11 | 1.79 |  |  | 14.5 ± 5.3 | 
7 | CCCc1nc2oc3c(N(C)CCO)ncnc3c2c2c1CCCC2 [CMP-39] | 0 |  | 0 |  |  | 0 | 0 |  | 
8 | CN(C)CCCNc1ncnc2c1sc1nc(N3CCOCC3)c3c(c12)CCC3 [CMP-43] |  |  |  |  |  | 0 | 0 |  | showed no agonist or PAM activity
9 | CN1CCN(c2ncnc3c2sc2nc(N4CCOCC4)c4c(c23)CCCC4)CC1 [CMP-19] |  |  |  | 51 ± 43 | 1.9 and 1.94 | 0 | 0 | 18.2 ± 8.6 | 
10 | Sc1nnnc2c1sc1nc(N3CCOCC3)c3c(c12)CCCC3 [CMP-52] |  |  |  | 0 | 0 | 0 | 0 |  | displayed no effects
11 | c1nc(N2CCNCC2)c2sc3nc(N4CCOCC4)c4c(c3c2n1)CCCC4 [CMP-3] | 1.6 and 1.64 | 14.8 ± 10.3 | 34 ± 5.3 | 60 ± 23 | 2.8 and 2.77 |  |  | 16.6 ± 15.9 | 
12 | c1ccc(-c2nc3sc4c(NCCN5CCOCC5)ncnc4c3c3c2CCCC3)cc1 [CMP-26] | 0.9 and 0.87 | 3.7 ± 0.5 | 16 ± 4 | 41 ± 15 | 1.8 and 1.76 |  |  | 30.2 ± 11.2 | 
13 | CCCc1nc2oc3c(N4CCNCC4)ncnc3c2c2c1CCCC2 [CMP-12] | 3.3 and 3.28 | 11.4 ± 3.6 | 66 ± 3 | 46 ± 7 | 2.2 and 2.23 |  |  | 14.1 ± 4.3 | 

The remaining lines, values ahead:

Row | AVP2R PAM (cAMP) Score (activity score = normalized Emax × pEC50) [1] | EC50 [1] [µM] | Emax [1] [%] | Emax (CCK1R [2]) [%] | CCK1R PAM (IP-One) Score (activity score = normalized Emax × pEC50) (CCK1R [2]) | CCK1R Ago (IP-One) Score (activity score = normalized Emax × pEC50) (CCK1R [3]) | Emax (CCK1R [3]) [%] | EC50 (CCK1R [2]) [µM] | CCK1R IP-One activity (in words) (CCK1R [2]) | Structure (SMILES)
14 | 2.95 | 15.3 ± 9.8 | 61 ± 12 | 0 | 0 | 0 | 0 |  |  | CCCc1nc2oc3c(NN)ncnc3c2c2c1CCCC2 [CMP-53]
15 | 0 |  | 0 |  |  | 0 | 0 |  |  | CCCc1nc2oc3c(NCCCO)ncnc3c2c2c1CCCC2 [CMP-58]
16 | 0 |  | 0 |  |  | 0 | 0 |  |  | CC(C)c1nc2oc3c(N4CCC(Cc5ccccc5)CC4)ncnc3c2c2c1CCC2 [CMP-63]
17 | 0 |  | 0 |  |  | 0 | 0 |  |  | CCCCNc1ncnc2c1sc1nc(CCC)c3c(c12)CCCC3 [CMP-57]
18 | 0 |  | 0 |  |  | 0 | 0 |  |  | CCCc1nc2oc3c(NCc4ccncc4)ncnc3c2c2c1CCCC2 [CMP-60]
19 | 0 |  |  |  |  | 0 |  |  |  | Cc1nc2sc3c(NCCN4CCOCC4)ncnc3c2c2c1CCCC2 [CMP-61]
20 | 0 |  | 0 |  |  | 0 | 0 |  |  | COc1ccc(CCNc2ncnc3c2oc2nc(C(C)C)c4c(c23)CCC4)cc1OC [CMP-62]
21 | 2.0 and 1.96 | 26.2 ± 2.4 | 43 ± 7 |  |  | 0 |  |  |  | CC(C)c1nc2sc3c(NCCN4CCOCC4)ncnc3c2c2c1CCCC2 [CMP-54]
22 | 0 |  | 0 |  |  | 0 | 0 |  |  | CCCc1nc2sc3c(NCCCO)ncnc3c2c2c1CCC2 [CMP-56]

Reference: article PMC9964746, “Mechanism of Action and Structure–Activity Relationships of Tetracyclic Small Molecules Acting as Universal Positive Allosteric Modulators of the Cholecystokinin Receptor” (Membranes, 2023)
